Test results as given in patent US8808742B2, “Compositions and methods for preparing and using same” (Ardea Biosciences, Inc., priority 2008, dated 2014).
Where two headings read alike, the source gives them in different places.

What was measured:
[1] = test system: phosphorylated ERK in MDA-MB-231 breast cancer cells; experiment: Western blotting for phosphorylated ERK in MDA-MB-231 cells (EC50 data); format: cell-based; settings: Homo sapiens, 0.5 h, 30 min compound, EGF stimulation, read-out: MDA pERK ELISA EC50
Experimental: Effects of compounds in the cell were determined by Western blotting for phosphorylated ERK. MDA-MB-231 breast cancer cells were plated in a 48 well plate at 20,000 cells per well and grown in a 37° humidified CO2 incubator. The following day, the growth media (DMEM+10% fetal bovine serum) was removed and replaced with starve media (DMEM+0.1% fetal bovine serum). Cells were incubated in the starve media for sixteen hours and then treated with a range of compound concentrations for thirty minutes. After incubation with compound, cells were stimulated with 100 ng/mlEGF for five minutes. The cells were then lysed and analyzed by Western blot using a monoclonal antibody raised to phosphorylated ERK. The signal was amplified using a secondary antibody conjugated to a near-IR dye and detected on a Licor Odyssey scanner.

[2] = test system: MEK (pERK levels) in Colo205 tumors; experiment: MEK inhibition (pERK Western blot) in Colo205 xenograft tumors vs plasma concentration; format: in vivo, Female nu/nu mice; settings: Colo205 xenografts, pharmacodynamic/pharmacokinetic study
Experimental: (§1) Human tumors were implanted in nu/nu mice. Compound no. 1021 was administered orally for 14 days once tumors were approximately 100 mm^3 in size. Tumor growth inhibition (TGI) was determined after 14 days of treatment as the reduction in the size of tumors in treated groups versus vehicle controls. The time to endpoint (TTE) was calculated as the time for the tumor to reach the specified endpoint volume or the last day of the study, whichever came first. Treatment outcome was determined from percent tumor growth delay (% TGD), defined as the percent increase in median TTE of treated versus vehicle-treated control mice. Animals were also monitored for regression responses. Levels of pERK in tumors and brain were determined by Western blots and correlated with plasma levels of Compound no. […] A number of tumor models were evaluated with different doses and dosing regimens. […] The effect of different dosing regimens was evaluated in A375 xenografts. […]
(§2) Female nu/nu mice implanted with Colo205 tumor cells were given a single dose of vehicle or Compound no. […] Compound levels were determined in plasma samples and pERK levels were determined in tumor and brain samples collected at 2, 6, 12, and 24 hr post-dose. The pERK levels from Western blots were quantified using the LI-COR Odyssey, normalized to total ERK levels and compared to vehicle-treated levels to determine % MEK inhibition. […]

A431 epidermoid tumors = experiment: A431 epidermoid tumor xenograft, tumor growth inhibition / delay; format: in vivo, nu/nu mice
Experimental: (§3) Human tumors were implanted in nu/nu mice. Compound no. 1021 was administered orally for 14 days once tumors were approximately 100 mm^3 in size. Tumor growth inhibition (TGI) was determined after 14 days of treatment as the reduction in the size of tumors in treated groups versus vehicle controls. The time to endpoint (TTE) was calculated as the time for the tumor to reach the specified endpoint volume or the last day of the study, whichever came first. Treatment outcome was determined from percent tumor growth delay (% TGD), defined as the percent increase in median TTE of treated versus vehicle-treated control mice. Animals were also monitored for regression responses. Levels of pERK in tumors and brain were determined by Western blots and correlated with plasma levels of Compound no. 1021 for the pharmacodynamic/pharmacokinetic study. A number of tumor models were evaluated with different doses and dosing regimens. […] The effect of different dosing regimens was evaluated in A375 xenografts. Although 100 mg/kg Compound no. […] 1021. […]
(§4) Tumor Growth Inhibition for the groups treated with 25 mg/kg Compound no. 1021 were calculated for the indicated tumor xenografts. Tumor Growth Inhibition was measured at the end of once daily dosing for 14 days and calculated according to: […]

[3] = test system: Colo205 colon cancer tumors; experiment: Colo205 colon tumor xenograft, tumor growth inhibition / delay; format: in vivo, nu/nu mice
Experimental: as §3, §4

[4] = Plasma concentrations in A375 xenograft mice, QD vs BID; format: in vivo, Female nu/nu mice; settings: oral
[5] = test system: brain MEK activity (pERK levels); experiment: Inhibition of brain MEK activity (pERK Western blot) vs plasma concentration; format: in vivo, Female nu/nu mice; settings: Colo205 xenograft mice, pharmacodynamic/pharmacokinetic study
Experimental: as §1, §2

A375 melanoma tumors = experiment: A375 melanoma xenograft, tumor growth inhibition / delay; format: in vivo, nu/nu mice
Experimental: as §1, §4
Female nu/nu mice were implanted with A375 tumor cells, which were allowed to grow to 100-200 mm^3. […] Tumor Growth Inhibition was measured at the end of once daily dosing for 14 days and calculated according to: […]

HT29 colon cancer tumors = experiment: HT29 colon tumor xenograft, tumor growth inhibition; format: in vivo, nu/nu mice; settings: oral 25 mg/kg QD
Experimental: as §3, §4

[6] = Single-dose capsule administration in human cancer patients, concentration-time profiles; settings: in vivo, oral, capsules of example 95A
Experimental: Administration of the capsules described in example 95A in Human Cancer Patients.Human cancer patients were administered a single dose of the 1 mg or 10 mg capsule composition described above in example 95A. For a 2 mg dose, patients were given 2×1 mg capsules; for a 4 mg dose, patients were given 4×1 mg capsules; for a 6 mg dose, patients were given 6×1 mg capsules; for a 10 mg dose, patients were given 1×10 mg capsule; for a 20 mg dose, patients were given 2×10 mg capsules.
The concentration-time profiles were monitored and are shown in FIG. 4 and in the table below: […]

[7] = column 2, no head, 2nd regimen of b975: 25 mg/kg BID

Work on `O=S(=O)(Nc1ccc(F)c(F)c1Nc1ccc(I)cc1F)c1ccc(-c2nsc(Cl)n2)s1` [compound 0530701] yielded an EC50 [1] of 100 to 200 nM.

With `COC(=O)c1sccc1S(=O)(=O)Nc1ccc(F)c(F)c1Nc1ccc(I)cc1F` [compound 0620926] the EC50 [1] was > 200 nM.

With `CS(=O)(=O)Nc1ccc(-c2ccc(Nc3c(NS(=O)(=O)C4CC4)ccc(F)c3F)c(F)c2)cc1` [compound 0499271] the EC50 [1] was > 200 nM.

In the case of `CCN(C)CCS(=O)(=O)Nc1ccc(F)c(F)c1Nc1ccc(I)cc1F` [compound 0621029], the EC50 [1] is reported as 100 to 200 nM.

For `COc1cc(F)c(F)c(Nc2ccc(I)cc2F)c1NS(=O)(=O)C1(C[C@H](O)CO)CC1` [Compound no. 1021], the “pERK formation in tumors” value [2] was “inhibition of pERK formation”, the “% TGD, significance” value (A431 epidermoid tumors; 25 or 50 mg/kg QD) was “statistically significant” and the “TGI, significance” value (A431 epidermoid tumors; oral 25 mg/kg QD) was “Statistically significant”. The “% TGD, significance” value ([3]; 25 or 50 mg/kg QD) was “statistically significant”, the “TGI, significance” value ([3]; oral 25 mg/kg QD) was “Statistically significant” and the “Cmin Free Fraction” value ([4]; column 1, no head, 1st regimen of b975: 50 mg/kg QD) was 0.117 ng/mL. For the same compound, the Cmax [4, 7] was 10200 ng/mL, the “Cmin Free Fraction” value [4, 7] was 2.48 ng/mL and the “Cmin Free Fraction” value ([4]; column 3, no head, 3rd regimen of b975: printed 50 mg/kg QD) was 0.059 ng/mL. The “Cmin Free Fraction” value ([4]; column 4, no head, 4th regimen of b975: 12.5 mg/kg BID) was 0.986 ng/mL, the “pERK inhibition in brain” value [5] was “minimal inhibition” and the “% TGD, significance” value (A375 melanoma tumors; 25 or 50 mg/kg QD) was “statistically significant”. For the same compound, the “TGI, significance” value (A375 melanoma tumors; oral 25 mg/kg QD) was “Statistically significant”, the “TGI, significance” value (HT29 colon cancer tumors) was “Statistically significant” and the concentration at 12 h ([6]; 2 mg, Dose 2 mg, Day 1, read-out: C12 hr) was 0.0378 ng/mL. The concentration at 12 h ([6]; 2 mg, Dose 2 mg, Day 35, read-out: C12 hr) was 0.0756 ng/mL, the concentration at 12 h ([6]; 4 mg, Dose 4 mg, Day 1, read-out: C12 hr) was 0.134 ng/mL and the concentration at 12 h ([6]; 4 mg, Dose 4 mg, Day 35, read-out: C12 hr) was 0.31 ng/mL. For the same compound, the concentration at 12 h ([6]; 10 mg, Dose 10 mg, Day 35, read-out: C12 hr) was 1.01 ng/mL and the concentration at 12 h ([6]; 20 mg, Dose 20 mg, Day 35, read-out: C12 hr) was 2.19 ng/mL.

With `O=S(=O)(Nc1ccc(F)c(F)c1Nc1ccc(-c2cn[nH]c2)cc1F)C1CC1` [compound 0497618] the EC50 [1] was > 200 nM.

In the case of `O=S(=O)(Nc1ccc(F)c(F)c1Nc1ccc(-c2cccnc2)cc1F)C1CC1` [compound 0497689], the EC50 [1] is reported as > 200 nM.

With `Cn1cc(-c2ccc(Nc3c(NS(=O)(=O)C4CC4)ccc(F)c3F)c(F)c2)cn1` [compound 0497620] the EC50 [1] was > 200 nM.

`O=S(=O)(Nc1ccc(F)c(F)c1Nc1ccc(I)cc1F)C1CCNCC1` [compound 0561599] showed an EC50 [1] of 15 to 100 nM.

For `O=S(=O)(Nc1ccc(F)c(F)c1Nc1ccc(-c2ccccc2)cc1F)C1CC1` [compound 0497692], the EC50 [1] was > 200 nM.

Work on `O=S(=O)(Nc1ccc(F)c(F)c1Nc1ccc(-c2cc[nH]n2)cc1F)C1CC1` [compound 0497654] yielded an EC50 [1] of 100 to 200 nM.

Work on `CNCCS(=O)(=O)Nc1ccc(F)c(F)c1Nc1ccc(I)cc1F` [compound 0621002] yielded an EC50 [1] of 15 to 100 nM.

In the case of `Cn1cc(S(=O)(=O)Nc2ccc(F)c(F)c2Nc2ccc(I)cc2F)c(C(F)(F)F)n1` [compound 0621026], the EC50 [1] is reported as 100 to 200 nM.

In the case of `CC(=O)c1cccc(-c2ccc(Nc3c(NS(=O)(=O)C4CC4)ccc(F)c3F)c(F)c2)c1` [compound 0499266], the EC50 [1] is reported as > 200 nM.

Work on `CN(C)CCNCCS(=O)(=O)Nc1ccc(F)c(F)c1Nc1ccc(I)cc1F` [compound 0621016] yielded an EC50 [1] of 15 to 100 nM.

With `O=S(=O)(Nc1ccc(F)c(F)c1Nc1ccc(-c2ccncc2)cc1F)C1CC1` [compound 0497688] the EC50 [1] was > 200 nM.

`COC(=O)c1ccc(S(=O)(=O)Nc2ccc(F)c(F)c2Nc2ccc(I)cc2F)n1C` [compound 0561608] gave an EC50 [1] of 15 to 100 nM.
